This test addresses T1, NL20 human bronchial epithelial cells expressing human Z-AAT (Homo sapiens, UniProt P01009, E366K).
T1 construct: expressed in transfected cells; host or cells: NL20 human bronchial epithelial cells (NL20-SI line, doxycycline added)
Put plainly: AAT Function Assay (MSD Assay NL20-SI Cell Line). The settings on record: functionally active AAT (AAT-hNE complex) in supernatant of NL20 cells expressing human Z-AAT; read-out: NL20 Func. (EC50). It counts as cell-based. On the procedure: A. AAT Function Assay (MSD Assay NL20-SI Cell Line)
Alpha-1 antitrypsin (AAT) is a SERPIN (serine protease inhibitor) that inactivates enzymes by binding to them covalently. This assay measured the amount of functionally active AAT in a sample in the presence of the disclosed compounds 1-215 by determining the ability of AAT to form an irreversible complex with human neutrophil Elastase (hNE). In practice, the sample (cell supernatant, blood sample, or other) was incubated with excess hNE to allow AAT-Elastase complex to be formed with all functional AAT in the sample. This complex was then captured to a microplate coated with an anti-AAT antibody. The complex captured to the plate was detected with a labeled anti-Elastase antibody and quantitated using a set of AAT standards spanning the concentration range present in the sample. Meso Scale Discovery (MSD) plate reader, Sulfo-tag labeling, and microplates were used to provide high sensitivity and wide dynamic range.
• 1. Harvest NL20 human bronchial epithelial cells expressing human Z-AAT in OptiMEM™ containing Pen/Strep (P/S) • 2. Seed at 16,000 cells/well in 30 μL (384 well plate) • 3. Centrifuge plates briefly up to speed (1200 rpm) and place into 37° C. incubator overnight Day 2: Compound Addition and Coating Plates with Capture Antibody Compound Addition: • 1. Dispense 40 μL of OptiMEM™ (P/S) with doxycycline (1:1000 stock=0.1 μM final) to each well of the compound plate using a multidrop Combi in hood • 2. Remove cell plate from incubator, flip/blot and take immediately to Bravo to transfer compounds • 3. Return plates to incubator overnight Coat MSD Plates • 1. Dilute capture antibody (Polyclonal Goat anti-AAT) to 5 μg/mL (1:200) in PBS (no BSA). • 2. Dispense 25 μL of diluted capture antibody into all wells of MSD 384-well High Bind plate using the Multidrop equipped with a standard cassette. • 3. Incubate overnight at 4° C. Prepare Blocker A (BSA) Solutions • 1. Prepare solution of 5% MSD Blocker A (BSA) following the manufacturer's instructions. • 2. Further dilute the 5% MSD Blocker A in PBS to 1% (Blocker A) as needed. Day 3: Run MSD Assay
Block Plates • 1. Wash plate 1× with 50 μL Wash buffer (PBS+0.5% Tween 20), and adds 35 μL 5% Block A buffer to block non-specific binding on washer dispenser • 2. Rotate plates on shaker for 1 hour at 600 rpm
Prepare M-AAT Standards • 1. Dilute M-AAT stock to 1.6 μg/mL in 1% BSA Blocker A (Stock in −70° C.); then prepare 12×1:2 serial dilutions in 1% Blocker A • 2. The top starting final concentration on MSD plate is 320 ng/mL. These dilutions correspond to a final concentration of 320, 160, 80, 40, 20, 10, 5, 2.5, 1.25, 0.625, 0.312, 0.156 ng/mL.
Dilution Plate • 1. Add 80 μL of 1% Assay buffer to all wells except columns 1/24 (standards) with Multidrop Combi • 2. Add diluted standards to columns 1 and 24 • 3. Centrifuge dilution plates 1200 rpm briefly
Cell Plate • 1. Aspirate columns which will have the standards from the cell plates in the hood using 16-pin aspirator
Prepare Human Neutrophil Elastase (hNE) • 1. Prepare 1 μg/mL Human Neutrophil Elastase by diluting in 1% Blocker A. • a. Small 100 μg vial—add 1 mL PBS (100 μg/mL) • i. This can then be diluted 1:100 in 1% Assay Buffer for a final 1 μg/mL concentration
MSD—Add hNE (20 μL/well) • 1. After the MSD plate has blocked for at least 1 hour, wash plate 1× with 50 μL Wash buffer (PBS+0.5% Tween 20) and then add 20 μL hNE to each well
Bravo—Cell Plate—Dilution Plate—MSD Plate
Using the Bravo aspirate 10 μL from the cell plate, transfer to the dilution plate (9-fold dilution)
• 1. Mix 25 μL 3×, then aspirate 5 μL, transfer to MSD plate (5-fold dilution) • 2. Mix 10 μL 3×. Total dilution is 45 fold. • 3. Shake plates at 600 rpm for 1.5 hours
Add Functional detection hNE antibody • 1. Wash plate 1× with wash buffer • 2. […]
T1 sequence (P01009 25-418 E366K): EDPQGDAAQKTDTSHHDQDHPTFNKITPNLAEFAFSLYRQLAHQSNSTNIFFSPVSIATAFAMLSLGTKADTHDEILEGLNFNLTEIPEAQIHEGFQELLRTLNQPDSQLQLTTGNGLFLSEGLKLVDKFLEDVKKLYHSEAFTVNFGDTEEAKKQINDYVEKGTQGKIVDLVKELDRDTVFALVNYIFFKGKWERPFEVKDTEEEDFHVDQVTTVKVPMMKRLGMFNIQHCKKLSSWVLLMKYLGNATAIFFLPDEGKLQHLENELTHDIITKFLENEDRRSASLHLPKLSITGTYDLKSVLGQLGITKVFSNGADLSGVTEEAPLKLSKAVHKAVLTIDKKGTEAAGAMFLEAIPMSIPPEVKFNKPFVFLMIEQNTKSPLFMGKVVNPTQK
As for `C=C(C)c1c(CCC(=O)O)c2cc3[nH]ncc3cc2n1-c1ccc(F)cc1` [Compound 192, 3-[5-(4-fluorophenyl)-6-isopropenyl-1H-pyrrolo[2,3-f]indazol-7-yl]propanoic Acid], the EC50 (usually the concentration at which the effect is half-maximal) lay within 1.16 to 3 µM. Regarding `CC(C)(C)c1c(C#N)c2cc3[nH]ncc3cc2n1-c1ccc(F)cc1` [Compound 143, 6-tert-butyl-5-(4-fluorophenyl)-1H-pyrrolo[2,3-f]indazole-7-carbonitrile], the EC50 was above 3 µM.

As to `Cc1cc(-n2c(C3CCOCC3)c(CC34CC(C(=O)O)(C3)C4)c3cc4[nH]ncc4cc32)ccc1F` [Compound 103], the 50% effective concentration (EC50) was above 3 µM.

Consider `Cc1c2[nH]ncc2cc2c1c(C1=CC3(C1)CC(C(=O)O)C3)c(C1CCOCC1)n2-c1ccc(F)c(F)c1` (stereo not drawn) [Compound 132, 2-[5-(3,4-difluorophenyl)-8-methyl-6-tetrahydropyran-4-yl-1H-pyrrolo[2,3-f]indazol-7-yl]spiro[3.3]hept-2-ene-6-carboxylic Acid], for which the half-maximal effective concentration (EC50) is below 1.16 µM. Consider `Cc1cc(-n2c(C(C)C)c(C(=O)NC3COC3)c3cc4[nH]ncc4cc32)ccc1F` [Compound 7, 5-(4-fluoro-3-methyl-phenyl)-6-isopropyl-N-(oxetan-3-yl)-1H-pyrrolo[2,3-f]indazole-7-carboxamide], for which the EC50 is above 3 µM. Next, `O=C(O)[C@H]1CC[C@H](Cc2c(C3CCOCC3)n(-c3ccc(F)cc3)c3cc4cn[nH]c4cc23)CC1` [Compound 119]: 1.16 to 3 µM; `C[C@]1(C(=O)O)C[C@@H](c2c(C3CCOCC3)n(-c3ccc(F)cc3)c3cc4cn[nH]c4cc32)C1` (single isomer, unassigned) [Compound 114]: above 3 µM; `CC(C)c1c(CCC(=O)O)c2cc3[nH]ncc3cc2n1-c1ccc(F)c(F)c1` [Compound 38, 3-[5-(3,4-difluorophenyl)-6-isopropyl-1H-pyrrolo[2,3-f]indazol-7-yl]propanoic Acid]: 1.16 to 3 µM.

Regarding `O=C(O)C1CCC(Cc2c(C3CCOCC3)n(-c3ccc(F)c(Cl)c3)c3cc4cn[nH]c4cc23)CC1` (mixture of isomers) [Compound 83], the 50% effective concentration (EC50) lay in the range of 1.16 to 3 µM. The figure for `CCOC(=O)c1c(C(C)C)n(-c2ccc(F)c(C)c2)c2cc3cn[nH]c3cc12` [Compound 2, ethyl 5-(4-fluoro-3-methyl-phenyl)-6-isopropyl-1H-pyrrolo[2,3-f]indazole-7-carboxylate] is above 3 µM. The figure for `O=C(O)C1CC2(C1)CC(c1c(C3CCOCC3)n(-c3ccc(F)cc3)c3cc4cn[nH]c4c(F)c13)C2` (single isomer, unassigned) [Compound 137, 6-[8-fluoro-5-(4-fluorophenyl)-6-tetrahydropyran-4-yl-1H-pyrrolo[2,3-f]indazol-7-yl]spiro[3.3]heptane-2-carboxylic acid] is below 1.16 µM; for `CS(=O)(=O)CCc1c(C2CCOCC2)n(-c2ccc(F)cc2)c2cc3cn[nH]c3cc12` [Compound 151] it is 1.16 to 3 µM.

In the case of `Cc1cc(-n2c(C3CCOCC3)c(C3CC4(CC(C(=O)O)C4)C3)c3cc4[nH]nc(C)c4cc32)ccc1F` (single isomer, unassigned) [Compound 127, 6-[5-(4-fluoro-3-methyl-phenyl)-3-methyl-6-tetrahydropyran-4-yl-1H-pyrrolo[2,3-f]indazol-7-yl]spiro[3.3]heptane-2-carboxylic acid], the EC50 is below 1.16 µM.

For `CC(C)c1c(-c2ccc(Cl)cc2)c2cc3cn[nH]c3cc2n1CCC(=O)O` [Compound 206, 3-[5-(4-chlorophenyl)-6-isopropyl-1H-pyrrolo[3,2-f]indazol-7-yl]propanoic Acid], the EC50 lay within 1.16 to 3 µM. The figure for `O=C(O)C1CC2(C1)CC(c1c(C3CCOCC3)n(-c3ccc(F)c(F)c3)c3cc4cn[nH]c4cc13)C2` (single isomer, unassigned) [Compound 68] is below 1.16 µM.

Turning to `NC(=O)N1CCCC(Cc2c(C3CCOCC3)n(-c3ccc(F)cc3)c3cc4cn[nH]c4cc23)C1` (stereo not drawn) [Compound 155, 3-[[5-(4-fluorophenyl)-6-tetrahydropyran-4-yl-1H-pyrrolo[2,3-f]indazol-7-yl]methyl]piperidine-1-carboxamide], the 50% effective concentration (EC50) was above 3 µM. The figure for `CC(C)c1c(CCC(=O)O)c2cc3[nH]ncc3cc2n1-c1ccc(F)cc1` [Compound 32, 3-[5-(4-fluorophenyl)-6-isopropyl-1H-pyrrolo[2,3-f]indazol-7-yl]propanoic Acid] is 1.16 to 3 µM; for `O=C(OCc1ccccc1)N1CCCC(Cc2c(C3CCOCC3)n(-c3ccc(F)cc3)c3cc4cn[nH]c4cc23)C1` (stereo not drawn) [Compound 154, benzyl 3-[[5-(4-fluorophenyl)-6-tetrahydropyran-4-yl-M-pyrrolo[2,3-f]indazol-7-yl]methyl]piperidine-1-carboxylate] it is 1.16 to 3 µM. With `Cc1cc(-n2c(C(C)C)c(CCC(=O)O)c3c(C)c4[nH]ncc4cc32)ccc1F` [Compound 51, 3-[5-(4-fluoro-3-methyl-phenyl)-6-isopropyl-8-methyl-1H-pyrrolo[2,3-f]indazol-7-yl]propanoic acid], the EC50 was in the range of 1.16 to 3 µM.

For `Cc1cc(-n2c(C(C)C)c(C(=O)N3CCOCC3)c3cc4[nH]ncc4cc32)ccc1F` [Compound 4, [5-(4-fluoro-3-methyl-phenyl)-6-isopropyl-1H-pyrrolo[2,3-f]indazol-7-yl]-morpholino-methanone], the concentration for a half-maximal effect (EC50) is above 3 µM. The figure for `[H][C@]1(C(=O)O)C[C@]2(C1)C[C@]([H])(c1c(C3CCOCC3)n(-c3ccc(F)c(C)c3)c3cc4cn[nH]c4cc31)C2` (single isomer, unassigned) [Compound 92] is below 1.16 µM. Next, `O=C(O)[C@H]1C[C@H](c2c(C3CCOCC3)n(-c3ccc(F)cc3)c3cc4cn[nH]c4cc32)C1` [Compound 113]: 1.16 to 3 µM.

For the molecule `O=C(O)C1CC2(C1)CC(c1c(C3CCOCC3)n(-c3ccc(F)cc3)c3cc4cn[nH]c4c(F)c13)C2` (single isomer, unassigned) [Compound 136, 6-[8-fluoro-5-(4-fluorophenyl)-6-tetrahydropyran-4-yl-1H-pyrrolo[2,3-f]indazol-7-yl]spiro[3.3]heptane-2-carboxylic acid], the concentration giving a half-maximal response (EC50) was below 1.16 µM. In the case of `O=C(OCc1ccccc1)N1CCC(Cc2c(C3CCOCC3)n(-c3ccc(F)cc3)c3cc4cn[nH]c4cc23)CC1` [Compound 152, Benzyl 4-[[5-(4-fluorophenyl)-6-tetrahydropyran-4-yl-1H-pyrrolo[2,3-f]indazol-7-yl]methyl]piperidine-1-carboxylate], the concentration for a half-maximal effect (EC50) was 1.16 to 3 µM. `Cc1cc(-n2c(C(C)C)c(S(C)(=O)=O)c3cc4[nH]ncc4cc32)ccc1F` [Compound 11, 5-(4-fluoro-3-methyl-phenyl)-6-isopropyl-7-methylsulfonyl-1H-pyrrolo[2,3-f]indazole]: the EC50 lay in the range of 1.16 to 3 µM. With `Cc1cc(-n2c(C(C)C)c(I)c3cc4[nH]nc(F)c4cc32)ccc1F` [Compound 46, 3-fluoro-5-(4-fluoro-3-methyl-phenyl)-7-iodo-6-isopropyl-1H-pyrrolo[2,3-f]indazole], the EC50 is above 3 µM. Next, `O=C(O)CC1CC(c2c(C3CCOCC3)n(-c3ccc(F)c(Cl)c3)c3cc4cn[nH]c4cc23)C1` (mixture of isomers) [Compound 85]: 1.16 to 3 µM.
